US20230263808A1 (UNIVERSITY OF FLORIDA RESEARCH FOUNDATION, INCORPORATED, priority 2020, published 2023)
“Also recorded” adds a separate entry of the source. Blank lines part the entries; values can stand above or below the compound they belong to.

How the values were obtained:
[1] = Pharmacokinetics for in vivo dosing
[2] = Body weight change after an overnight fast; format: in vivo, C57BL/6 male mice; conditions: 10 mg/kg Dex or SR16024, 50 mg/kg SR11466, single dose
Excerpt: A) The effects of all tested compounds on IL-1β-induced IL-6 production (x-axes) versus GR interaction with the indicated peptides. B-C) The effects of all tested compounds on the indicated GC-regulated phenotypes (x-axes) versus GR interaction with the CHD9_1023 and CENPR_1 peptides (y-axes). D-F) COC plots. Each point represents the Pearson correlation coefficient, r, between a distinct gene expression or GR-peptide interaction assay with assays indicated on the x and y axes. G) The effects of all tested compounds on IL-1β-induced IL-6 production (y-axes) versus insulin-induced protein synthesis. […] IL-β-induced IL-6 production by A549 cells treated with the indicated compounds was compared by AlphaLISA. […] Mice in panel K were subjected to a lactate-tolerance test (LTT).
We were also interested in whether the compounds would show dissociation between Glut4 translocation in skeletal muscle and gluconeogenesis in the liver, but enhanced glucose production is typically studied after weeks or months of GC treatment. However, we reasoned that an overnight fast should enable detection of effects after a single dose. […] Thus, profiling effects of GCs in the physiological context of nutrient deprivation allowed the discovery of two new types of glucocorticoids with improved profiles in skeletal muscle.

[3] = Loss of lean mass after a larger dose of LPS (whole-body NMR); format: in vivo, C57BL/6 male mice; conditions: additional 18 h LPS treatment
Excerpt: (§1) A) Correlation of correlation (COC) plots where each point represents the Pearson correlation coefficient, r, between a distinct gene expression or GR-peptide interaction assay with assays indicated on the x and y axes. B) The effects of all tested compounds on IL-1β-induced secretion of IL-6 (y axes) and GC-regulated phenotypes indicated on the x axes. C) The effects of all tested compounds on IL-1β-induced secretion of IL-6 (y axis) and bone mineralization (x axis). D) IL-1β-induced IL-6 production by A549 cells treated with 10 μM of the indicated compounds was compared by AlphaLISA. E-H) Myoblasts were assayed as described in FIG. 8. I) Representative myoblasts imaged during the mitochondrial potential assay. J) Plasma TNFα levels of C57BL/6 male mice treated pretreated with the indicated ligands. K) Changes in lean mass of mice in panel J were determined by whole-body NMR after an additional 18 h LPS treatment. Data shown are mean+SEM.

[4] = tested on: C2C12 myoblasts; test: Mitochondrial potential, high-content imaging with MitoTracker dye; format: cell-based, mouse
Procedure: (§2) A) C2C12 myotubes were assayed for chymotrypsin-like proteasomal activity. […] C) Quantitation of the ICW in panel B. D) ICW for surface expression of Glut4 on L6 myotubes. E) ICW for insulin-induced incorporation of puromycin into C2C12 myotube surface proteins. F-G) High-content imaging and analysis of C2C12 myoblasts stained with a Mitotracker dye. H) Assay reproducibility from screening 22 compounds on two separate occasions. The Pearson correlation coefficient, r, and its associated p-value is indicated.
A) Each dot represents the effects of a compound in the indicated assays at 10 uM. N=4-6 from two different experiments. […] C) SR11466 is efficacious at inhibiting IL-6 secretion from A549 cells. C-E). […] D) Mitochondrial activity was measured in myoblasts using high content imaging with mitotracker dye after 24 treatment. New amino acid incorporation was measured with LICOR in cell western for puromycin (SunSet assay). E) top, MMTV-luciferase reporter data. N=3, mean+SEM. Bottom, Mineralization of primary human OBs was assayed after two weeks of differentiation from MSC and two weeks of mineralization. N=4, mean+SEM, 2-way ANOVA.
(§3) Physiologically, the effects of GCs on protein balance and Glut4 translocation vary in vivo depending upon the stressor. For example, GCs mediate atrophy in response to fasting but not exercise. […] To assess protein degradation, we measured chymotrypsin-like proteasomal activity (FIG. 2, A). The activating phosphorylation of AKT at Thr308 (pAKT) was measured using a LI-COR In-Cell Western assay (FIG. 2, B and C). The rate-limiting step in insulin-mediated glucose uptake is the translocation of the glucose transporter, Glut4, to the surface membrane, which we also measured by In-Cell Western without permeabilizing the myotubes (FIG. 2, D). Surface Sensing of Translation (SUnSET) (Schmidt et al., Nat Methods 6, 275-277, 2009) assay was used to measure protein synthesis by In-Cell Western, following treatment of myotubes with a low dose of puromycin, which incorporates into translating proteins, but at a low enough level to provide a readout for global protein synthesis (FIG. 2, E). Lastly, we developed a high-content imaging assay in myoblasts stained with a MitoTracker dye, so that individual mitochondrial networks could be visualized with adequate resolution to quantitate area, segmentation, branching, and fluorescence intensity which is a measure of mitochondrial membrane potential (ψm).

[5] = tested on: C2C12 myotubes; test: Insulin-induced protein synthesis (SUnSET, In-Cell Western) in C2C12 myotubes; format: cell-based, mouse; conditions: for effect on insulin-induced protein synthesis: differentiated myotubes, nutrient-deprived, insulin challenge
Procedure: as §2
C2C12 myocytes were used in all assays, except in the Glut4 translocation assay where L6 rat myocytes were used. ICW, In-Cell Western. Also see Methods.
To avoid such effects on myogenesis, we switched myoblasts to differentiation media, and then on day 4, added 10 μM cytarabine, a chemotherapy agent that kills dividing cells, and then adding GCs on day 6 or 7 and completing assays in day 8 (FIG. 8).
as §3

[6] = tested on: LPS-induced TNFα; test: LPS-induced plasma TNFα levels in mice; format: in vivo, C57BL/6 male mice; conditions: mice pretreated with ligand
Excerpt: as §1

[7] = tested on: IL-1β-induced IL-6 secretion by A549 lung cells; test: IL-1β-induced IL-6 secretion by A549 lung cells (AlphaLISA); format: cell-based
[8] = tested on: GILZ mRNA; test: GILZ gene expression; format: cell-based

pharmacokinetics for in vivo dosing [1]: favorable pharmacokinetics
IC50 ([7]; A549 lung cells, read-out: potency for inhibiting IL-1β-induced IL-6 secretion): 4 nM
Structure (SMILES): C=CCOC1CC2(C)C(CCC2(O)C#CC)C2CCc3cc(C(=O)Nc4cccnc4C)ccc3C12 (centres unmarked) [SR11466]
preserving body mass after overnight fast [2]: significantly better than Dex
loss of lean mass following a larger dose of LPS [3]: significantly better than Dex
effect on mitochondrial activity / potential [4]: enhanced
effect on insulin-induced protein synthesis [5]: slightly anabolic
LPS-induced TNFα levels in the blood [6]: strongly suppressed
inhibition of IL-6 production in combination with RU486 ([7]; A549 cells, with RU486): reversed by RU486

pharmacokinetics for in vivo dosing [1]: favorable pharmacokinetics
Structure (SMILES): CC#CC1(O)CCC2C3CCc4cc(C(=O)Nc5cccnc5C)ccc4C3C(OCc3ccccc3Cl)CC21C (centres unmarked) [SR16024]
preserving body mass after overnight fast [2]: slight weight sparing effect
loss of lean mass following a larger dose of LPS [3]: protective
effect on mitochondrial activity / potential [4]: enhanced; also recorded: doubling; also recorded: anabolic profile in mitochondria
anabolic effect on protein synthesis in combination with Dex ([5]; C2C12 myotubes, with Dex): right-shift in the dose curve; also recorded: Dex inhibits
effect on insulin-induced protein synthesis [5]: doubling; also recorded: robustly stimulated protein synthesis
LPS-induced TNFα levels in the blood [6]: not inhibitory
GILZ gene expression [8]: not activating GILZ

Structure (SMILES): CC#CC1(O)CCC2C3CCc4cc(C(=O)Nc5cccnc5C)ccc4C3C(OCc3ccc(Cl)cc3)CC21C (centres unmarked) [SR16025]
GILZ gene expression [8]: not activating GILZ
